The values below come from ChEMBL document CHEMBL1201862, “PubChem BioAssay data set” (2004).

Test systems include UACC-257; NCI-H460; OVCAR-8; HOP-92; HCC 2998; NCI/ADR-RES; PC-3; UACC-62; CAKI-1; RXF 393; HCT-15; TK-10; A498; OVCAR-5; SK-MEL-2; BT-549; SR; SF-268; K562; SNB-19.
Test in all cases: NCI tumour cell line growth inhibition, 48 h

Structures are written as SMILES.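 Test compounds were applied to cells in 96-well plates for 48 hours at 5 doses. Abbreviation: GI50, concentration required for 50% inhibition of growth.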 Active and inactive are the calls of the source. Cut-off read from the data, not from the text of the source: active = GI50 up to about 1.1 µM and inactive = higher. Bounds are passed on as bounds.

As for `c1ccc(C2=Nc3cccc4cccc(c34)N2)cc1`, the GI50 was > 69.5 µM (inactive) in the test with UACC-257; 57 µM (inactive) in the test with NCI-H460; 35.5 µM (inactive) with OVCAR-8; 24.4 µM (inactive) in the test on HOP-92; 43.9 µM (inactive) in the test with HCC 2998; 30.8 µM (inactive) in the test on NCI/ADR-RES. In addition, the GI50 in the test on PC-3 is 22.8 µM (inactive); with UACC-62, 37.9 µM (inactive); in the test with CAKI-1 it was 37.2 µM (inactive); in the test with RXF 393, 22 µM (inactive); in the test with HCT-15 it was 28.6 µM; in the test with TK-10, 48.9 µM (inactive). Besides, the GI50 was > 100 µM (inactive) in the test on A498; 69.5 µM (inactive) with OVCAR-5; > 46.3 µM (inactive) with SK-MEL-2; > 44.2 µM (inactive) in the test on BT-549; 9.48 µM (inactive) in the test on SR; 44.8 µM (inactive) in the test on SF-268. Also, the results for the GI50 in the test with K562 and in the test on SNB-19 were 32 µM (inactive) and > 100 µM (inactive), respectively.

On to `CSc1cc(-c2ccccn2)nc(-c2ccccn2)c1`, for which the GI50 with UACC-257 was 0.481 µM (active); in the test with NCI-H460 it was 0.0541 µM (active); in the test with OVCAR-8, 0.0845 µM (active); in the test on HOP-92, 0.0959 µM (active); with HCC 2998, 0.0518 µM (active); in the test with NCI/ADR-RES, 0.0944 µM (active). Also, the GI50 in the test on PC-3 is 0.092 µM (active); with UACC-62, 0.176 µM (active); in the test with CAKI-1 it was 0.065 µM (active); with RXF 393, 0.255 µM (active); in the test with HCT-15, 0.0324 µM; in the test with TK-10, 0.0401 µM (active). Moreover, the GI50 in the test with A498 was 0.769 µM (active); in the test on OVCAR-5 it was 0.179 µM (active); with SK-MEL-2, 0.552 µM (active); with BT-549, 0.0536 µM (active); in the test with SR, 0.0405 µM (active); in the test with SF-268 it was 0.0559 µM (active). Moreover, the GI50 is 0.248 µM (active) in the test with K562 and 0.564 µM (active) in the test on SNB-19.

As to `N#Cc1nc(-c2cccs2)oc1N`, the GI50 with UACC-257 is > 100 µM (inactive); with NCI-H460 it was > 100 µM (inactive); in the test on OVCAR-8, > 100 µM (inactive); in the test with HOP-92 it was 90.2 µM (inactive); with HCC 2998, > 100 µM (inactive); with NCI/ADR-RES, > 100 µM (inactive). Moreover, the GI50 with PC-3 is > 100 µM (inactive); in the test with UACC-62 it was > 100 µM (inactive); in the test with CAKI-1, 3.09 µM (inactive); in the test with RXF 393, > 100 µM (inactive); in the test on HCT-15 it was above 100 µM; in the test on TK-10, > 100 µM (inactive). Also, the GI50 with A498, with OVCAR-5, in the test on SK-MEL-2, in the test with BT-549, with SR and in the test with SF-268 was > 100 µM (inactive) each time. Besides, the GI50 in the test with K562 and with SNB-19 was > 100 µM (inactive) each time.

Take `COc1ccc(C2SCC(=O)N2NC(=O)C(C)Oc2ccccc2C)cc1` (stereo not given): the GI50 in the test on UACC-257 is > 100 µM (inactive); in the test on NCI-H460 it was > 100 µM (inactive); in the test on OVCAR-8, > 100 µM (inactive); in the test with HOP-92, 29.2 µM (inactive); in the test on HCC 2998, > 100 µM (inactive); in the test with NCI/ADR-RES, 65.2 µM (inactive). For the same compound, the GI50 in the test on PC-3 is > 100 µM (inactive); in the test with UACC-62, 80.2 µM (inactive); in the test with CAKI-1, > 100 µM (inactive); in the test on RXF 393 it was > 100 µM (inactive); in the test on HCT-15 it was 54.7 µM; in the test on TK-10, > 100 µM (inactive). Besides, the GI50 in the test with A498 is 46 µM (inactive); with OVCAR-5, > 100 µM (inactive); in the test on SK-MEL-2, 92.7 µM (inactive); with BT-549, > 100 µM (inactive); with SR, 28.2 µM (inactive); in the test on SF-268 it was > 100 µM (inactive). Moreover, the GI50 in the test on K562 was 41.4 µM (inactive); in the test with SNB-19, > 100 µM (inactive).

Turning to `N#Cc1c(-c2nc3ccccc3s2)c(=O)oc2cc(O)ccc12`, the GI50 was 24.3 µM (inactive) in the test on UACC-257; 27.8 µM (inactive) in the test with NCI-H460; 32.1 µM (inactive) in the test with OVCAR-8; 3.52 µM (inactive) with HOP-92; 30.3 µM (inactive) in the test with HCC 2998; 32.4 µM (inactive) in the test on NCI/ADR-RES. Moreover, the GI50 with PC-3 is 34.4 µM (inactive); in the test with UACC-62, > 100 µM (inactive); with CAKI-1 it was 17.5 µM (inactive); in the test on RXF 393, 43.6 µM (inactive); in the test with HCT-15, 27.1 µM; in the test with TK-10, > 100 µM (inactive). For the same compound, the GI50 in the test with A498 was 23 µM (inactive); in the test on OVCAR-5, 52 µM (inactive); in the test with SK-MEL-2, 49.7 µM (inactive); with BT-549, 16.7 µM (inactive); with SR it was 37.3 µM (inactive); in the test with SF-268 it was 48.6 µM (inactive). Also, the GI50 is 31.8 µM (inactive) in the test with K562 and 46 µM (inactive) with SNB-19.

Turning to `O=c1c2cc(I)ccc2nc(SCc2nncs2)n1Cc1ccccc1`, the GI50 was 10.5 µM (inactive) in the test with UACC-257; 7.62 µM (inactive) in the test with NCI-H460; 36.5 µM (inactive) in the test on OVCAR-8; 3.34 µM (inactive) in the test with HOP-92; 16.4 µM (inactive) with HCC 2998; > 100 µM (inactive) in the test with NCI/ADR-RES. Moreover, the GI50 with PC-3 was 13.8 µM (inactive); in the test with UACC-62, 13.6 µM (inactive); in the test with CAKI-1, 2.15 µM (inactive); in the test on RXF 393, 13.6 µM (inactive); in the test with HCT-15, 50.2 µM; in the test with TK-10, 29.5 µM (inactive). The GI50 with A498 is 19.7 µM (inactive); with OVCAR-5, 99.5 µM (inactive); in the test with SK-MEL-2, 16.1 µM (inactive); with BT-549, > 100 µM (inactive); with SR it was 15.4 µM (inactive); with SF-268, 14.1 µM (inactive). The results for the GI50 in the test on K562 and with SNB-19 were 16.7 µM (inactive) and 19.5 µM (inactive), respectively.

As for `Cc1cc(S(=O)(=O)Nc2nc3ccccc3[nH]2)c(S)cc1Cl`, the GI50 is > 100 µM (inactive) in the test on UACC-257; 32.7 µM (inactive) in the test with NCI-H460; > 100 µM (inactive) with OVCAR-8; 62.5 µM (inactive) in the test on HOP-92; 98.9 µM (inactive) in the test on HCC 2998; > 100 µM (inactive) with NCI/ADR-RES. Also, the GI50 in the test on PC-3 was 46.6 µM (inactive); in the test with UACC-62, 79.4 µM (inactive); in the test with CAKI-1, 45 µM (inactive); in the test with RXF 393, > 100 µM (inactive); in the test with HCT-15, above 100 µM; in the test with TK-10, > 100 µM (inactive). Further, the GI50 was > 100 µM (inactive) with A498; > 100 µM (inactive) in the test with OVCAR-5; 30.9 µM (inactive) with SK-MEL-2; > 100 µM (inactive) in the test on BT-549; 38.2 µM (inactive) in the test with SR; 64.7 µM (inactive) in the test on SF-268. Further, the GI50 in the test on K562 is 48 µM (inactive); in the test on SNB-19, 72.3 µM (inactive).

On to `O=C(CCl)Nc1ccc(-c2nc3ccccc3s2)cc1`, for which the GI50 in the test with UACC-257 is 5.66 µM (inactive); with NCI-H460 it was 2.84 µM (inactive); with OVCAR-8, 2.59 µM (inactive); with HOP-92, 2.36 µM (inactive); in the test with HCC 2998, 2.51 µM (inactive); in the test on NCI/ADR-RES, 4.59 µM (inactive). Moreover, the GI50 in the test with PC-3 is 2.56 µM (inactive); in the test with UACC-62 it was 2.22 µM (inactive); with CAKI-1, 1.74 µM (inactive); in the test with RXF 393 it was 3.43 µM (inactive); in the test on HCT-15, 2.18 µM; in the test on TK-10, 15.7 µM (inactive). Also, the GI50 in the test on A498 is 6.82 µM (inactive); in the test on OVCAR-5, 5.82 µM (inactive); in the test with SK-MEL-2, 2.65 µM (inactive); with BT-549 it was 1.6 µM (inactive); with SR, 1.46 µM (inactive); in the test with SF-268 it was 2.81 µM (inactive). Also, the GI50 was 1.91 µM (inactive) in the test on K562 and 2.4 µM (inactive) in the test with SNB-19.
